According to US9890176B2, “Mannose derivatives for treating bacterial infections” (Vertex Pharmaceuticals Incorporated, priority 2013, dated 2018):

Test system: bacterial strain LF82 binding to the glycoprotein BSA-(Mannose)3
Assay: Bacterial Binding Assay (BBA)
Type: cell-based, Escherichia coli
Conditions: read-out: Bacterial Binding Assay IC50
Text: The purpose of the Bacterial Binding Assay (BBA) is to determine the inhibition activity of selective FimH antagonists on the bacterial strain LF82 binding to the glycoprotein BSA-(Mannose)3.
Below is a list of the Materials used to run the BBA are described below. • 1. LB broth: Supplier: Gibco, #10855 • 2. D-PBS: Supplier: Wisent, #311-425-CL • 3. LB agar plates • 4. 96-well black plate (high binding): Supplier: Costar, #3925 • 5. TopSeal™-A adhesive sealing films; Supplier PerkinElmer, #6005185 • 6. Carbonate-bicarbonate buffer pH 9.6 tablets, Supplier: Medicago, #09-8922-24 • 7. Water, Supplier: Gibco, #15230-162 • 8. Bovine serum albumin (BSA): Supplier: Sigma, #A-7888 • 9. (Man)-3-BSA (α1-3, α1-6 Mannotriose-BSA, 1 mg), V-Labs, #NGP1336, lot#HGDX37-169-1 • 10. Tween 20: Supplier: Sigma, #P9416 • 11. Bright-Glo Luciferase Assay System: Supplier: Promega, #E2610 • 12. LF82/Luciferase strain: Invasive ability of an Escherichia coli strain isolated from the ileal mucosa of a patient with Crohn's disease. Boudeau J, Glasser A L, Masseret E, Joly B, Darfeuille-Michaud A, Infect Immun. 1999, 67(9), 4499-509
Solutions and buffers used to run the BBA are described below. • 1. 0.04M carbonate-bicarbonate buffer (coating buffer) • 2. […] 1 mg of (Man)-3-BSA in 25 mL of water. • 3. 4000 ng/mL BSA • 4. 40 ng/mL BSA • 5. 1 μg/mL BSA-(Man)3: 150 μL of 40 ng/mL BSA-(Man)3+5.85 mL of 40 ng/mL BSA • 6. 0.5 μg/mL BSA-(Man)3 in 0.02M carbonate-bicarbonate buffer. • 7. 20 ng/mL BSA in 0.02M carbonate-bicarbonate buffer • 8. Blocking buffer (2% BSA/DPBS): 1 g of BSA in 50 mL D-PBS • 9. 2× binding buffer (0.2% BSA/D-PBS): 5 mL of blocking buffer+45 mL D-PBS. • 10. Washing buffer (D-PBS/0.01% Tween 20): 10 μL of Tween 20 in 100 mL D-PBS. • 11. 1× Bright-Glo Luciferase substrate:Dilute 1:1 the Bright-Glo Luciferase Assay System with D-PBS The experimental protocol to run the BBA is described below.
Overnight culture of LF82/Luciferase strain: Into two Falcon 50 mL tubes, add 20 mL of LB+20 μL of 50 mg/mL Kanamycin and inoculate with a loop from glycerol stock of the LF82/Luciferase strain. Incubate overnight at 37° C. with no shaking.
Glycoprotein coating of 96-well plates: Add 100 μL/well of 0.5-2 μg/mL BSA-(Man)3. 20 μg/mL BSA is used as the control background. Seal plate using an adhesive sealing film and incubate overnight at room temperature. Wash the 96-well plate three times with 150 μL/well of D-PBS, add 170 μL/well of blocking solution and incubate 45 min (minimum) at room temperature.
Preparation of bacterial suspension: Mix the two cultures tubes (40 mL) and perform a 1:10 dilution in LB (900 μl LB+100 μl culture. Measure optical density (OD) of the bacterial cultures. OD1 ˜5×10^8 cells/mL. Centrifuge LF82 culture for 20 min at 3500 rpm at room temperature. Re-suspend bacterial pellet in D-PBS and centrifuge again for 20 min at 3500 rpm. Re-suspend bacterial pellet in D-PBS to obtain a bacterial concentration of 2×10^9 bacteria/mL. Dilute 1/10 in D-PBS to obtain a final bacterial concentration of 2×10^8 bacteria/mL (=107 bacteria/50 μL). Perform 1/10 serial dilutions in LB of each bacterial suspension, plate 10 μL of dilutions on LB agar plates (final dilutions of 10^−7) and incubate overnight at 37° C. and count CFUs to determine the actual bacteria density in the assay.
Bacterial binding assay: Add 147 μL 2× binding buffer to compound plate (containing 3 μL of compound). After blocking step is performed (at least 45 min), wash plates three times with 200 μL/well of D-PBS. With a 100 μL multichannel manual pipettor, add 50 μL/well of compound diluted in 2× binding buffer. With a 100 μL multichannel manual pipettor, add 50 μL/well of bacterial suspension. Agitate at slow speed for 1 min and incubate 40-75 min at room temperature. Wash 5 times with 150 μL/well of washing buffer and then once with D-PBS. Add 100 μL/well of 1× Bright-Glo Luciferase substrate. […]

Structure (SMILES)	IC50
Cc1cc(-c2cncc(-c3ccc(O[C@H]4O[C@H](CO)[C@@H](O)[C@H](O)[C@]4(C)O)c(C)c3)c2)ccc1O[C@H]1O[C@H](CO)[C@@H](O)[C@H](O)[C@]1(C)O [Example 119, (2R,3S,4S,5S,6R)-6-(hydroxymethyl)-3-methyl-2-[2-methyl-4-[5-[3-methyl-4-[(2R,3S,4S,5S,6R)-3,4,5-trihydroxy-6-(hydroxymethyl)-3-methyl-tetrahydropyran-2-yl]oxy-phenyl]-3-pyridyl]phenoxy]tetrahydropyran-3,4,5-triol]	0.6 ± 0.2 nM
CNC(=O)c1cccc(-c2ccc(O[C@H]3O[C@H]([C@H](C)O)[C@@H](O)[C@H](O)[C@@H]3O)c(C)c2)c1 [compound 27]	165 ± 49 nM
OC[C@H]1O[C@@]2(CCc3cc(O)ccc3O2)[C@@H](O)[C@@H](O)[C@@H]1O [Example 124, (2R,3′S,4′S,5′S,6′R)-6′-(hydroxymethyl)spiro[chromane-2,2′-tetrahydropyran]-3′,4′,5′,6-tetrol]	650 ± 550 nM
COc1ccc(-c2ccc(O[C@H]3O[C@H](CO)[C@@H](O)[C@H](O)[C@]3(C)O)c(C)c2)cc1Cl [Compound 96]	20 ± 9 nM
COc1cc(Cl)c(Cl)cc1-c1ccc(O[C@H]2O[C@H](CO)[C@@H](O)[C@H](O)[C@]2(C)O)c(C)c1 [Compound 100]	155 ± 25 nM
CNC(=O)c1cccc(-c2ccc(O[C@H]3O[C@H](CO)[C@@H](O)[C@H](O)[C@]3(C)O)cc2C)c1 [Compound 42]	375 ± 255 nM
C[C@@]1(O)[C@@H](Oc2ccc(-c3ccc(O[C@H]4O[C@H](CO)[C@@H](O)[C@H](O)[C@]4(C)O)c(OC(F)(F)F)c3)cc2OC(F)(F)F)O[C@H](CO)[C@@H](O)[C@@H]1O [Example 114, (2R,3S,4S,5S,6R)-6-(hydroxymethyl)-3-methyl-2-[2-(trifluoromethoxy)-4-[3-(trifluoromethoxy)-4-[(2R,3S,4S,5S,6R)-3,4,5-trihydroxy-6-(hydroxymethyl)-3-methyl-tetrahydropyran-2-yl]oxy-phenyl]phenoxy]tetrahydropyran-3,4,5-triol]	1 ± 1 nM
CNC(=O)c1cccc(-c2ccc(O[C@H]3O[C@H](CO)[C@@H](O)[C@H](O)[C@]3(C)O)cc2C(F)(F)F)c1 [Compound 43]	785 ± 474 nM
CNC(=O)c1cccc(-c2ccc(Cl)c(O[C@H]3O[C@H](CO)[C@@H](O)[C@H](O)[C@]3(C)O)c2)c1 [Compound 44]	43 ± 12 nM
CNC(=O)c1cccc(-c2ccc(O[C@H]3O[C@H](CO)[C@@H](O)[C@H](O)[C@@]3(O)CN)c(C)c2)c1 [Compound 48]	605 ± 215 nM
CNC(=O)c1cccc(-c2ccc(O[C@H]3O[C@H](CO)[C@@H](O)[C@](C)(O)[C@@H]3O)c(C)c2)c1 [compound 25]	68 ± 18 nM
CNC(=O)c1ccc(CCO[C@@]2(C)O[C@H](CO)[C@@H](O)[C@H](O)[C@@H]2O)cc1 [compound 35]	1800 ± 300 nM
CC(C)c1cc(-c2ccc(O[C@H]3O[C@H](CO)[C@@H](O)[C@H](O)[C@]3(C)O)c(C(C)C)c2)ccc1O[C@H]1O[C@H](CO)[C@@H](O)[C@H](O)[C@]1(C)O [Example 115, (2R,3S,4S,5S,6R)-6-(hydroxymethyl)-2-[2-isopropyl-4-[3-isopropyl-4-[(2R,3S,4S,5S,6R)-3,4,5-trihydroxy-6-(hydroxymethyl)-3-methyl-tetrahydropyran-2-yl]oxy-phenyl]phenoxy]-3-methyl-tetrahydropyran-3,4,5-triol]	4 ± 0.6 nM
CNC(=O)c1cc(F)cc(-c2ccc(O[C@H]3O[C@H](CO)[C@@H](O)[C@H](O)[C@]3(C)O)c(Cl)c2)c1 [Compound 56]	24 ± 0.5 nM
CNC(=O)c1cccc(-c2ccc(O[C@H]3O[C@H](CO)[C@@H](O)[C@H](O)[C@]3(C)O)c(Cl)c2)c1 [Example 15, 3-[3-chloro-4-[(2R,3S,4S,5S,6R)-3,4,5-trihydroxy-6-(hydroxymethyl)-3-methyl-tetrahydropyran-2-yl]oxy-phenyl]-N-methyl-benzamide]	13 ± 2 nM
Cc1cc(-c2cccc(-c3ccc(O[C@H]4O[C@H](CO)[C@@H](O)[C@H](O)[C@]4(C)O)c(C)c3)c2)ccc1O[C@H]1O[C@H](CO)[C@@H](O)[C@H](O)[C@]1(C)O [Example 120, (2R,3S,4S,5S,6R)-6-(hydroxymethyl)-3-methyl-2-[2-methyl-4-[3-[3-methyl-4-[(2R,3S,4S,5S,6R)-3,4,5-trihydroxy-6-(hydroxymethyl)-3-methyl-tetrahydropyran-2-yl]oxy-phenyl]phenyl]phenoxy]tetrahydro-pyran-3,4,5-triol]	3 ± 2 nM
Cc1cc(-c2cccc(S(=O)(=O)NC(C)(C)C)c2)ccc1O[C@H]1O[C@H](CO)[C@@H](O)[C@H](O)[C@]1(C)O [Compound 86]	26 ± 8 nM
Cc1cc(C2CC2c2ccc(O[C@H]3O[C@H](CO)[C@@H](O)[C@H](O)[C@]3(C)O)c(C)c2)ccc1O[C@H]1O[C@H](CO)[C@@H](O)[C@H](O)[C@]1(C)O (stereo partly drawn) [Example 123, (2R,3S,4S,5S,6R)-6-(hydroxymethyl)-3-methyl-2-[2-methyl-4-[2-[3-methyl-4-[(2R,3S,4S,5S,6R)-3,4,5-trihydroxy-6-(hydroxymethyl)-3-methyl-tetrahydropyran-2-yl]oxy-phenyl]cyclopropyl]phenoxy]tetrahydropyran-3,4,5-triol]	1 ± 0.5 nM
Cc1cc(-c2cccc(C(=O)O)c2)ccc1O[C@H]1O[C@H](CO)[C@@H](O)[C@H](O)[C@]1(C)O [Compound 21]	112 ± 37 nM
Cc1cc(-c2cccc(S(N)(=O)=O)c2)ccc1O[C@H]1O[C@H](CO)[C@@H](O)[C@H](O)[C@]1(C)O [Compound 84]	10 ± 2 nM
Cc1cc(-c2cc(C#N)ccc2C)ccc1O[C@H]1O[C@H](CO)[C@@H](O)[C@H](O)[C@]1(C)O [Compound 101]	1180 ± 215 nM
CNC(=O)c1cccc(-c2ccc(O[C@H]3O[C@H](CO)[C@@H](O)[C@H](O)[C@@]3(O)COCCO)c(C)c2)c1 [Compound 50]	830 ± 170 nM
Cc1cc(-c2cccc(C(=O)NCCN3CCN(C)CC3)c2)ccc1O[C@H]1O[C@H](CO)[C@@H](O)[C@H](O)[C@]1(C)O [Compound 58]	13 ± 1 nM
CNC(=O)c1cc(-c2ccc(O[C@H]3O[C@H](CO)[C@@H](O)[C@H](O)[C@]3(C)O)c(Cl)c2)ccc1F [Compound 55]	20 ± 0.5 nM
Cc1cc(-c2ccc(F)cc2)ccc1O[C@H]1O[C@H](CO)[C@@H](O)[C@H](O)[C@]1(C)O [Compound 74]	180 ± 40 nM
C[C@H](O)[C@H]1O[C@H](Oc2ccc(N3CCc4cc([N+](=O)[O-])ccc43)cc2Cl)[C@@H](O)[C@@H](O)[C@@H]1O [compound 28]	1300 nM
Cc1cc(-c2cccc(C(=O)NCCN3CCOCC3)c2)ccc1O[C@H]1O[C@H](CO)[C@@H](O)[C@H](O)[C@]1(C)O [Compound 63]	12 ± 3 nM
C[C@@]1(O)[C@@H](Oc2ccc(N3CCc4cc([N+](=O)[O-])ccc43)cc2Cl)O[C@H](CO)[C@@H](O)[C@@H]1O [Example 19, (2R,3S,4S,5S,6R)-2-(2-chloro-4-(5-nitroindolin-1-yl)phenoxy)-6-(hydroxymethyl)-3-methyltetrahydro-2H-pyran-3,4,5-triol]	13 ± 6 nM
